Assay [1] deals with T1, human factor Xa (Homo sapiens, UniProt P00742).
T1 construct: purchased SIGMA
Nature of the assay: Inhibition of the amidolytic effect of factor Xa in solution on Bz-Ile-Glu-Gly-Arg-pNA (method M6). The format is biochemical. The settings on record: Table 2; Bz-Ile-Glu-Gly-Arg-pNA, isolated human factor Xa; read-out: B: IC50 (factor Xa inhibiting effect). As for the experimental part:
(§1) Anticoagutant activity (i.e. inhibition of the proteolytic reactions in the process) is measured by anticoagulant tests, e.g. by the thrombin time (TT), activated partial thromboplastin time (APTT) and prothrombin time (PT) tests [E. J. W. Bovie et al; Mayo Clinic Laboratory Manual of Hemostasis; W. B. Sanuders Co., Philadelphia (1971)]. Plasma, inhibited in spontaneous coagulation, e.g. citrate-plasma, is made to coagulate and the required coagulation time is measured. Upon the action of anticoagulants the coagulation time is prolonged proportionally to the inhibition of the reaction(s) in the process. The anticoagulant effect can be characterized by the substance concentration required to double the coagulation time compared to the control (IC50). The effect of anticoagulants on individual coagulant proteases is measured by the amidolytic method [R. Lottenberg et al., Methods in Enzymol. 80, 341 (1981); G. Cleason, Blood Coagulation and Fibrinolysis 5, 411 (1994)]. The isolated active factor (e.g. thrombin, fXa) and its chromogen or fluorogen peptide-amide substrate are reacted in the presence or absence of the inhibitor, resp. The enzyme inhibiting action is characterized by the inhibitory constant (IC50) measured during amidolysis.
(§2) The in vitro anticoagulant effect of the compounds of general formula (I) was measured by the prothrombin time (PT), activated partial thromboplastin time (APTT) and thrombin time (TT) tests [D. Bagdy et at., Thromb. Haemost. 67, 325 (1992)]. The Xa-factor-inhibiting effect of the compounds was also determined by using the Bz-Ile-Glu-Gly-Arg-pNA chromogen substrate (see method M6).
Assay of the Inhibition of Factor Xa in Solution on a 96-well Microtiter Plate
a) 1.3 U/mL factor Xa (human, SIGMA), 0.1-1.0-10 and 100 μg/mL solutions in phosphate buffer (0.1 M sodium phosphate and 0.05 M sodium chloride, pH 7.4) of the peptide inhibitors and […] solutions of the substrate Bz-Ile-Glu-Gly-Arg-pNA in distilled water are used.
b) Three reaction mixtures are prepared from the control and each peptide solution. 30 μL each of the peptide and the buffer, serving as control, 30 μL factor Xa, 90 μL butter and 150 μL substrate are placed in the wells of the plate, then after 10 minutes the extinction values are read at 405 nm The procedure is continued as described in Method M2, point c).

Assay [2] deals with whole blood clotting time (WBCT). Nature of the assay: Ex vivo whole blood clotting time (WBCT) in rabbits after p.o. dosing. More on the design: species or system New Zealand white rabbits. The settings on record: p.o. 5 mg/kg. As for the experimental part:
(§3) The anticoagulant and platelet aggregation inhibiting effect of the compounds of general formula (I) was studied In New Zealand white rabbits ex vivo according to D. Bagdy et al [Thromb. Haemost 67. 357 (1992). The compounds were dissolved in buffered isotonic saline solution and administered i.v. (0,04-5.0 mg/kg) or by infusion (0.25-5.0 mg/kg/h) or subcutaneously (0.5-6.0 mg/kg) or p.o. (2.5-20 mg/kg). The effect of the compounds was detectable already within 30 minutes following p.o. administration, peak values were attained after 60-180 minutes and the therapeutic level was maintained dose-dependently for 3→6 hours.
(§4) The in vivo effect of D-cHga Pro-Arg-H (1) is presented in detail in Tables 5 and 6. The corresponding values of C1 are listed as controls. The compound was administered p.o. in doses of 5 mg/kg. The blood samples drawn from the caudal vein in every 30-60 minutes were analyzed. The whole blood clotting time (WBCT) and the inhibition of thrombin-induced blood platelet aggregation (PAI) were determined. The activated partial thromboplastin time (APTT) and the thrombin time (TT) in the citrate plasma obtained from the blood sample were also measured. The APTT and TT values are compiled in Table 5 and the WBCT and PAI values in Table 6.

In assay [3] the target is tissue plasminogen activator (tPA) (Homo sapiens, UniProt P00750). Nature of the assay: Fibrin-plate method, plasmin formation induced by tPA. The class given is biochemical. The settings on record: for IC50: fibrin-plate method, hydrolyzed area reduced by 50%. The text has this: (§5) The inhibitory effect of the new compounds of the invention on plasmin (PL) as well as on plasmin formation induced by tissue plasminagen activator (tPA) and urokinase (UK) was studied by the […] [D. Bagdy et al.; Thromb. Haemost. 67, 325 (1992)]. Compounds C1 and C3 served as controls. […] V. Jackson et al., J. Cardiovasc. Pharmacol. 21, 587 (1993)].
Sequence of tissue plasminogen activator (tPA) (P00750 36-562, species assumed): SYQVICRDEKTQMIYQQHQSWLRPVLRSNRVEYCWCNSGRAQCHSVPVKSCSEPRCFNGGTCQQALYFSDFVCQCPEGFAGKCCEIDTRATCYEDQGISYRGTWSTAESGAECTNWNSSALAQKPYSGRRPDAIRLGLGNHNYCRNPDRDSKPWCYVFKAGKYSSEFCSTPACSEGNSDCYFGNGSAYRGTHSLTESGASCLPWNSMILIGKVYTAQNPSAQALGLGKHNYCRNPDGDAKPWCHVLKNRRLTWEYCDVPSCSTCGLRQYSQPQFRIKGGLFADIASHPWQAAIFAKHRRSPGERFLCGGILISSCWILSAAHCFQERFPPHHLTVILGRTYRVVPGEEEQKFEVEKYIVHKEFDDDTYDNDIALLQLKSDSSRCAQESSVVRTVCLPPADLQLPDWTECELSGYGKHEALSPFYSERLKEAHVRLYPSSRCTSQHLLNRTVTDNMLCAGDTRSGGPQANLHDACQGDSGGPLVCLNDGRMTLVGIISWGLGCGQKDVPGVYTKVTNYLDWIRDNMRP

(§6) ^a IC50 = peptide concentration (mM) where the hydrolyzed area o
(§7) the fibrin plate is reduced by 50% compared to the control

The target of assay [4] is urokinase (UK) (Homo sapiens, UniProt P00749). Nature of the assay: Fibrin-plate method, plasmin formation induced by urokinase. The class given is biochemical. The settings on record: for IC50: fibrin-plate method, hydrolyzed area reduced by 50%.
Excerpt: as §5, §6, §7

Assay [5] deals with activated partial thromboplastin time (APTT). Nature of the assay: Ex vivo APTT in citrate plasma of rabbits after p.o. dosing. More on the design: species or system New Zealand white rabbits. The settings on record: p.o. 5 mg/kg. As to the method: as §3, §4
The subject of assay [6] is citrate plasma coagulation (APTT). Nature of the assay: Activated partial thromboplastin time (APTT) plasma clotting test. The class given is biochemical. As to the method:
as §1
In the TT test coagulation is initiated by the thrombin added to the citrate plasma. In the system 22 pmol/mL of thrombin is functioning and in the presence of plasma components its inhibition can be measured on the fibrinogen (one of the natural substrates of thrombin) present In the APTT and PT tests the full coagulation process is made to proceed. Depending on the activator fX is activated by the extrinsic or intrinsic pathway. The generated fXa activates prothrombin to thrombin which, in turn, triggers plasma coagulation. In the test the coagulation time is prolonged if the enzymes or one of them is inhibited by the inhibitor. In the APTT and PT tests at most 40 pmole/ml Xa is generated (this is the full amount of factor X present in both systems) while 150 pmole/ml (APTT) and 350 pmole/ml (PT) are generated from thrombin [B Kaiser et al., Thromb. Res. 65, 157 (1992)].
as §2

Where [7] appears, read: related to the activity of C1 (1/IC50 = 1).

Like-named read-outs stand apart in the source and are kept apart here.

T1 sequence (P00742 235-488 limits assumed): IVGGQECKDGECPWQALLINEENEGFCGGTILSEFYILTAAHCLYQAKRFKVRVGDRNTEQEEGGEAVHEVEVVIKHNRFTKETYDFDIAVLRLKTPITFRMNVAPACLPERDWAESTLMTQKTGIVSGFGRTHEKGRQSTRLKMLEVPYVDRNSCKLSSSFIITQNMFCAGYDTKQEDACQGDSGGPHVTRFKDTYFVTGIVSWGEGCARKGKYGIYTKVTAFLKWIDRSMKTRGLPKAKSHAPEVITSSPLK
T1 sequence (P00742 41-179 partner limits assumed): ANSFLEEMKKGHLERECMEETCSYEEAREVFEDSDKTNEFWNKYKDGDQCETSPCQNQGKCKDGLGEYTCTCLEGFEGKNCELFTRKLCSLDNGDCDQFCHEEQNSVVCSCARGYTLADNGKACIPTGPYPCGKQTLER

On to `N=C(N)NCCC[C@@H](C=O)NC(=O)[C@H]1CCCN1C(=O)C(O)C1CCCCCC1.N=C(N)NCCC[C@@H](C=O)NC(=O)[C@H]1CCCN1C(=O)C(O)C1CCCCCC1.O=S(=O)(O)O` (stereo partly drawn) [Compound 1, D-2-Cycloheptyl-2-hydroxyacetyl-L-prolyl-L-arginine aldehyde hemisulfate], for which the IC50 is 0.063 µM in assay [1]; 74 µM in assay [3]; 120 µM in assay [4]; 0.37 µM in assay [6] (Table 2, concentration doubling clotting time, read-out: A: IC50, APTT). Also, the “WBCT relative clotting time” value in assay [2] (0 min) is given as 1.0; in assay [2] (30 min), 1.80 ± 0.36; in assay [2] (45 min) it was 2.03 ± 0.35; in assay [2] (60 min), 1.98 ± 0.30; in assay [2] (90 min) it was 1.78 ± 0.26; in assay [2] (120 min) it was 1.52 ± 0.13. Further, the results for the “WBCT relative clotting time” value in assay [2] (180 min) and in assay [2] (240 min) were 1.29 ± 0.07 and 1.13 ± 0.04, respectively. In assay [3], the “B: relative efficacy, tPA” value turned out to be 1.8. Moreover, the “times lower activity than compound C3, second enzyme (tPA)” value in assay [3] (versus C3 of Table 4) is on record as 12. The “B: relative efficacy, UK” value in assay [4] stood at 0.7. The “times lower activity than compound C3, third enzyme (UK)” value in assay [4] (versus C3 of Table 4) came to 39. The “APTT relative clotting time” value in assay [5] (0 min) was 1.0; in assay [5] (30 min), 2.01 ± 0.43; in assay [5] (45 min) it was 2.25 ± 0.43; in assay [5] (60 min) it was 2.32 ± 0.43; in assay [5] (90 min), 2.11 ± 0.31; in assay [5] (120 min), 1.84 ± 0.11. In addition, the “APTT relative clotting time” value in assay [5] (180 min) came to 1.66 ± 0.10; in assay [5] (240 min) it was 1.37 ± 0.08; in assay [5] (300 min), 1.31 ± 0.09.

In the case of `CN[C@H](Cc1ccccc1)C(=O)N1CCC[C@H]1C(=O)N[C@H](C=O)CCCNC(=N)N` [Compound C1, D-MePhe-Pro-Arg-H], the IC50 is 9.13 µM in assay [1], 132 µM in assay [3], 82 µM in assay [4] and 0.622 µM in assay [6] (read-out: concentration doubling the clotting time in the APTT test). Further, the “WBCT relative clotting time” value in assay [2] (0 min) is 1.0; in assay [2] (30 min) it was 1.07 ± 0.13; in assay [2] (45 min), 1.26 ± 0.07; in assay [2] (60 min) it was 1.55 ± 0.17; in assay [2] (90 min), 1.61 ± 0.34; in assay [2] (120 min), 1.45 ± 0.21. In addition, the “WBCT relative clotting time” value in assay [2] (180 min) is on record as 1.44 ± 0.08; in assay [2] (240 min), 1.22 ± 0.08. The “B: relative efficacy, tPA” value in assay [3] (setting [7]) is recorded as 1.0. Besides, the “B: relative efficacy, UK” value in assay [4] (setting [7]) was 1.0. The “APTT relative clotting time” value worked out at 1.0 in assay [5] (0 min); 1.27 ± 0.38 in assay [5] (30 min); 1.30 ± 0.02 in assay [5] (45 min); 1.37 ± 0.03 in assay [5] (60 min); 1.45 ± 0.09 in assay [5] (90 min); 1.43 ± 0.11 in assay [5] (120 min). For the same compound, the results for the “APTT relative clotting time” value in assay [5] (180 min), in assay [5] (240 min) and in assay [5] (300 min) were 1.39 ± 0.09, 1.31 ± 0.11 and 1.25 ± 0.22, respectively.

The values are drawn from patent US6121241A, “Anticoagulant peptide aldehyde derivatives” (Gyogyszerkutato Intezet Kft., priority 1996, dated 2000).
